Measured values taken from patent US20220024891A1 (The Board of Regents of the University of Texas System, priority 2018, published 2022).
Like-named read-outs stand apart in the source and are kept apart here.

How the values were obtained:
DLD-1 cells = experiment: Sensitivity of DLD-1 versus HCT-116 cells to EBP inhibitors; type: cell-based, human; details: varying doses
[1] = Mouse PK analysis, plasma; type: in vivo; details: for Cmax: female, CD-1, mouse, plasma, dosed intravenously (i.v.)
[2] = Mouse PK analysis, large intestine; type: in vivo; details: for AUC(0-t): female, CD-1, mouse, large intestine, read-out: Large Intestinal pK AUClast (converted)
DLD1 tumors = experiment: Xenograft mouse model, DLD1 tumors; type: in vivo; details: nude mice, 40 mg/kg intraperitoneally twice daily for 18 days
[3] = system: colorectal tumors in CPC;Apc mice; experiment: Anti-tumor effects in CPC;Apc mice; type: in vivo, mouse; details: 90 days' treatment
Experimental: These mice carry a CDX2P-NLS Cre recombinase transgene and a loxP-targeted Apc allele that deletes exon 14, leading to a frame shift at codon 580 and a truncated APC protein. […] Weights were measured every 15 days over the treatment period. These studies were performed according to the guidelines of the UT Southwestern Institutional Animal Care and Use Committee.

With `COc1ccc2c(c1)CCC(c1ccccc1)=C2c1ccc(OCCN2CCCC2)cc1` [Nafoxidine, nafoxidine] the “selective sensitivity of DLD-1 versus HCT-116 cells” value (DLD-1 cells) was “selectively sensitive”.

In the case of `CC1CCN(C2CCN(S(=O)(=O)c3ccc(OC(F)F)cc3)CC2)CC1` [compound 22, 1′-((4-(Difluoromethoxy)phenyl)sulfonyl)-4-methyl-1,4′-bipiperidine], the oral bioavailablity ([1]; 20 mg/kg) is reported as 52%, the Cmax ([1]; iv) is reported as 191 to 742 ng/mL and the “Plasma pK AUClast (ng · min/mL)” value ([1]; ip, 10 mg/kg) is reported as 205,914 ng · min/mL. For the same compound, the “Plasma pK Cmax (ng/mL)” value ([1]; ip, 10 mg/kg) was 1,117 ng/mL, the “Plasma pK Tmax (min)” value ([1]; ip, 10 mg/kg) was 10 min and the “Plasma pK Vz (mL)” value ([1]; ip, 10 mg/kg) was 156 mL. The “Plasma pK AUClast (ng · min/mL)” value ([1]; iv, 5 mg/kg) was 197,571 ng · min/mL, the “Plasma pK Cmax (ng/mL)” value ([1]; iv, 5 mg/kg) was 742 ng/mL and the “Plasma pK Tmax (min)” value ([1]; iv, 5 mg/kg) was 10 min. The “Plasma pK Vz (mL)” value ([1]; iv, 5 mg/kg) was 135 mL, the “Plasma pK AUClast (ng · min/mL)” value ([1]; po, 20 mg/kg) was 328,296 ng · min/mL and the “Plasma pK Cmax (ng/mL)” value ([1]; po, 20 mg/kg) was 691 ng/mL. The “Plasma pK Vz (mL)” value ([1]; po, 20 mg/kg) was 153 mL, the AUC(0-t) ([2]; ip, 10 mg/kg) was 13200 ng·h/mL and the AUC(0-t) ([2]; iv, 5 mg/kg) was 8530 ng·h/mL. The AUC(0-t) ([2]; po, 20 mg/kg) was 14800 ng·h/mL, the “Large Intestinal pK Tmax (min)” value ([2]; po, 20 mg/kg) was 10 min and the melting point was 132 to 135 °C.

With `CC(C(O)c1ccc(O)cc1)N1CCC(Cc2ccccc2)CC1` (stereo not drawn) [Ifenprodil, ifenprodil] the “selective sensitivity of DLD-1 versus HCT-116 cells” value (DLD-1 cells) was “selectively sensitive”.

For `CC1CCN(C2CCN(S(=O)(=O)c3ccc(Cl)cc3)CC2)CC1` [compound 16, 1′-((4-Chlorophenyl)sulfonyl)-4-methyl-1,4′-bipiperidine], the Cmax ([1]; iv) was 191 to 742 ng/mL, the “Plasma pK AUClast (ng · min/mL)” value ([1]; iv, 10 mg/kg) was 21,581 ng · min/mL and the “Plasma pK Cmax (ng/mL)” value ([1]; iv, 10 mg/kg) was 191 ng/mL. The “Plasma pK Tmax (min)” value ([1]; iv, 10 mg/kg) was 30 min, the “Plasma pK Vz (mL)” value ([1]; iv, 10 mg/kg) was 1243 mL and the AUC(0-t) ([2]; iv, 10 mg/kg) was 4380 ng·h/mL. For the same compound, the “Large Intestinal pK Tmax (min)” value ([2]; iv, 10 mg/kg) was 10 min and the melting point was 152 to 155 °C.

For `COc1ccc(S(=O)(=O)N2CCC(N3CCC(C)CC3)CC2)cc1` [TASIN-1], the “toxicity and body weights” value (DLD1 tumors) was “no overt toxicity and no statistically significant differences were observed in the body weights” and the “body weight over treatment” value [3] was “gained weight to a level similar to WT mice”.
